{"source": "patent US4434290A", "about": "“Pyrido (4,3-B) carbazoles substituted in the 1 position by a polyamine chain” (priority 1978, dated 1984)", "key": {"Friend's virus (VFA)": {"system": "Friend's virus (VFA)", "assay": "Anemia inducing Friend's virus, dose/effect relationship (Table XIX)", "format": "in vivo, mice", "conditions": "for Death interval / ILS % / Mean survival time: VFA 1/800, D+1; for Surviving mice: groups of 10 mice", "from_the_text": "The following experiments related to the treatment of mice inoculated by the virus of Friend's leukemia.\nIn these experiments DBA2, male mice, aged from 2 to 3 months, of weight around 20 g, were used.\nAn anemia inducing strain of Friend's virus (VFA) maintained for several years in the laboratory was used. The viral stock was constituted by an acellular supernatant liquor obtained by the centrifugation of a ground product of leukemic spleens, carried out in an 0.5 M PBS-saccharose solution. The assay of the stock was done in vivo by the method described by JASMIN et al [J. Nat. Cancer Inst. 1974,53, 469-474]. The measurement is expressed in SD50 (50% spleen enlarging dose).\nExperimental groups of 10 mice were used, into which the VFA virus (dilution 1/800-% of leukemias=100%) was injected on day Do. The compound 27 according to the invention was then injected at day D+1 at various doses according to the groups and the death interval, the mean survival time and the percentage of increased life span were determined."}, "leukemia L1210": {"system": "leukemia L1210", "assay": "Leukemia L1210 in vivo, dose/effect relationship (Table XIV)", "parameters": "species or system mice", "conditions": "for Death interval / ILS % / Mean survival time: 10^5 cells; for Death interval / ILS % / Mean survival time / Surviving mice: D+1; for Surviving mice: groups of six mice", "method": "The properties were determined by the curative action inoculated experimental leukemia L1210. This leukemia was maintained on B6 D2 Fl (C 57 Bl/6×DBA/2) Fl mice in the proportion of 6 or 10 mice per experimental batch. The compounds to be tested were injected by the intraperitoneal route one or several days after inoculation of the cells (1 injection only). The death interval was determined, the first figure of the Table indicating the date of the first mouse death and the second the date of the last mouse death. The mean survival time was also measured (MST). A characteristic value is the percentage of increased life span (ILS %). This value (Cancer. Res. 1971, 31, 1883-1887) is the ratio: [formula] where S^t =survival of treated animals and\nS^c =survival of control animals.\nThe study was carried out on experimental groups of six mice by the previously defined method. 10^5 cells were injected at day Do. […] The death interval was determined, the mean survival time was measured (MST) and the percentage of increased life span was calculated (ILS %) by the above-defined formula."}}, "data": [{"smiles": "CCN(CC)CCCNc1nccc2c(C)c3[nH]c4ccc(OC)cc4c3c(C)c12", "note": "[Compound 27]", "values": [{"measurement": "deaths through toxicity", "setting": "Friend's virus (VFA); 15 mg/kg, group of 10 mice", "result": "Two"}, {"measurement": "dose/effect relationship", "setting": "Friend's virus (VFA); 5-15 mg/kg", "result": "proportional to the inoculated dose"}, {"measurement": "Death interval", "setting": "Friend's virus (VFA); 5 mg/kg", "result": "25-36"}, {"measurement": "ILS %", "setting": "Friend's virus (VFA); 5 mg/kg", "result": 31.78, "unit": "%"}, {"measurement": "Mean survival time", "setting": "Friend's virus (VFA); 5 mg/kg", "result": 31.1}, {"measurement": "Death interval", "setting": "Friend's virus (VFA); 10 mg/kg", "result": "32-64"}, {"measurement": "ILS %", "setting": "Friend's virus (VFA); 10 mg/kg", "result": 103, "unit": "%"}, {"measurement": "Mean survival time", "setting": "Friend's virus (VFA); 10 mg/kg", "result": 45.8}, {"measurement": "Death interval", "setting": "Friend's virus (VFA); 15 mg/kg", "result": "33-63"}, {"measurement": "Mean survival time", "setting": "Friend's virus (VFA); 15 mg/kg", "result": 49.9}, {"measurement": "ILS %", "setting": "Friend's virus (VFA); 15 mg/kg, toxic deaths excluded", "result": 122, "unit": "%"}, {"measurement": "Surviving mice", "setting": "Friend's virus (VFA); 5 mg/kg", "result": 0, "unit": "mice"}, {"measurement": "Surviving mice", "setting": "Friend's virus (VFA); 10 mg/kg", "result": 0, "unit": "mice"}, {"measurement": "Surviving mice", "setting": "Friend's virus (VFA); 15 mg/kg", "result": 0, "unit": "mice"}, {"measurement": "dose/effect relationship", "setting": "leukemia L1210; 5-20 mg/kg, day D+1", "result": "proportional to the dose inoculated"}, {"measurement": "Death interval", "setting": "leukemia L1210; 5 mg/kg", "result": "16-24"}, {"measurement": "ILS %", "setting": "leukemia L1210; 5 mg/kg", "result": 80.4, "unit": "%"}, {"measurement": "Mean survival time", "setting": "leukemia L1210; 5 mg/kg", "result": 19.3}, {"measurement": "Death interval", "setting": "leukemia L1210; 10 mg/kg", "result": "14-21"}, {"measurement": "ILS %", "setting": "leukemia L1210; 10 mg/kg", "result": 57, "unit": "%"}, {"measurement": "Mean survival time", "setting": "leukemia L1210; 10 mg/kg", "result": 16.8}, {"measurement": "Death interval", "setting": "leukemia L1210; 15 mg/kg", "result": "13-31"}, {"measurement": "ILS %", "setting": "leukemia L1210; 15 mg/kg", "result": 96.3, "unit": "%"}, {"measurement": "Mean survival time", "setting": "leukemia L1210; 15 mg/kg", "result": 21}, {"measurement": "Death interval", "setting": "leukemia L1210; 20 mg/kg", "result": "15-25"}, {"measurement": "ILS %", "setting": "leukemia L1210; 20 mg/kg", "result": 75.7, "unit": "%"}, {"measurement": "Mean survival time", "setting": "leukemia L1210; 20 mg/kg", "result": 18.8}, {"measurement": "Surviving mice", "setting": "leukemia L1210; 5 mg/kg", "result": 0, "unit": "mice"}, {"measurement": "Surviving mice", "setting": "leukemia L1210; 10 mg/kg", "result": 0, "unit": "mice"}, {"measurement": "Surviving mice", "setting": "leukemia L1210; 15 mg/kg", "result": 0, "unit": "mice"}, {"measurement": "Surviving mice", "setting": "leukemia L1210; 20 mg/kg", "result": 1, "unit": "mice"}]}]}
